Measured values reported in ChEMBL document CHEMBL1154094, “Carbonic anhydrase inhibitors. Aromatic/heterocyclic sulfonamides incorporating phenacetyl, pyridylacetyl and thienylacetyl tails act as potent inhibitors of human mitochondrial isoforms VA and VB” (Bioorg Med Chem, 2009).

What was measured:
[1] = biological target: Carbonic anhydrase 5A, mitochondrial (Homo sapiens, UniProt P35218)
[2] = biological target: Carbonic anhydrase 5B, mitochondrial (Homo sapiens, UniProt Q9Y2D0)
Chain of Carbonic anhydrase 5B, mitochondrial (Q9Y2D0 whole entry): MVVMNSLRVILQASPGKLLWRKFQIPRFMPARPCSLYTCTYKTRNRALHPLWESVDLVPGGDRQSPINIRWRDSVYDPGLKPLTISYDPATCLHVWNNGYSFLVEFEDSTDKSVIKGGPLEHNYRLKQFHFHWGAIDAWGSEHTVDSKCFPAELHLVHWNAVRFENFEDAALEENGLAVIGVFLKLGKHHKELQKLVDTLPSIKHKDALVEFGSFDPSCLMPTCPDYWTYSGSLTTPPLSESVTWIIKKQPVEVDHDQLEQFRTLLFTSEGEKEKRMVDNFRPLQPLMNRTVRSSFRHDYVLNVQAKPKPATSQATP

Chain of Carbonic anhydrase 5A, mitochondrial (P35218 whole entry): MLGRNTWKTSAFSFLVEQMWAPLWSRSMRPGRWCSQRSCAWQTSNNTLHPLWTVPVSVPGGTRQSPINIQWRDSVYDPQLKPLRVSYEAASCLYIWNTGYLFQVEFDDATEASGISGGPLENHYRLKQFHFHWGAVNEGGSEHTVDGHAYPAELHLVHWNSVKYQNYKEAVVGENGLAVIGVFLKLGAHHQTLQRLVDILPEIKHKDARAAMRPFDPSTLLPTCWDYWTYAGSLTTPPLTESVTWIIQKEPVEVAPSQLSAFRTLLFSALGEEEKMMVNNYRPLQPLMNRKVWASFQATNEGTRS

| Ki [1] [nM] | Ki [2] [nM] | SMILES |
| --- | --- | --- |
| 9.1 | 7.2 | NS(=O)(=O)c1ccc(CNC(=O)Cc2cccs2)cc1 |
| 6.7 | 7.9 | NS(=O)(=O)c1ccc(NC(=O)Cc2ccccc2)cc1 |
| 7.2 | 7 | NS(=O)(=O)c1ccc(NC(=O)Cc2cccs2)cc1 |
| 10.2 | 8 | NS(=O)(=O)c1ccc(CCNC(=O)Cc2cccs2)cc1 |
